From patent publication US6531453B1, “NKT cell activators containing α-glycosylceramides” (Kirin Beera Kabushiki Kaisha, priority 1997, dated 2003)

Experiments:
[1] = Acute toxicity test by a single administration; format: in vivo; conditions: mouse, in vivo, 10 mg/kg; intravenous, single administration, mice
Source text: (§1) The compound of Example 1 was intravenously administered to mice.

[2] = system: mice; experiment: Acute toxicity test by a single administration; format: in vivo; conditions: intravenous, 10 mg/kg
Source text: as §1

[3] = system: pregnant C57BL/6 mice; experiment: Induction of abortion in pregnant C57BL/6 mice; format: in vivo, mouse
Method: C57BL/6 mice (Japan SLC) were used for the following experiment. The day when a vaginal plug was observed was defined as day 0. Pregnant mice were divided into 2 groups (6 mice per group), i.e., one group to which 150 μg/kg of KRN 7000 were intravenously administered on days 7, 8 and 9, and another to which PBS (phosphate-buffered saline) was administered in the same way. On day 12, the uterus was removed to observe the state of the embryo.

[4] = system: NOD/ShiJic (NOD) mice; experiment: Suppression of spontaneous diabetes onset in NOD mice; format: in vivo, mouse; conditions: 100 μg/kg i.p. twice a week from 7 weeks of age; control 80%, FIG. 7
Method: Ten animals per group of NOD/ShiJic (NOD) mice (6-week-old, females) (Japan Clea, Inc.) were used for the following experiment. […] The animals were divided into two groups, i.e., one group to which 100 μg/kg of KRN 7000 were intraperitoneally administered twice a week starting from 7-weeks of age, and an untreated control group. The presence and absence of diabetic symptoms was examined every week. The blood glucose level was measured using a glucometer (Miles Sankyo), and mice showing the value of more than 200 mg/dL twice consecutively were diagnosed to be diabetic.

[5] = system: Vα24+ NKT cells; experiment: Stimulation of Vα24+ NKT cell proliferation, autologous mixed leukocyte reaction with treated antigen-presenting cells; format: cell-based, human; conditions: antigen-presenting cells treated with 100 ng/ml, FIG. 9
Method: Peripheral blood mononuclear cells of a normal human were cultured for 4 days in an AIM medium supplemented with 10% FCS with the addition of GM-CSF (400 U/ml), IL-4 (200 U/ml) and KRN 7000 (100 ng/ml) to prepare antigen-presenting cells.
An autologous mixed leukocyte reaction (MLR) was performed using these antigen-presenting cells as stimulator cells and autologous peripheral blood mononuclear cells as responder cells. After incubation for 10 days, IL-2 (5 U/ml) was added, incubation was continued for another 4 days, and the cells were harvested. Next, CD4, CD8 double negative cells were recovered from these harvested cells and subjected to the phenotype analysis. The phenotypic analysis was expressed by fluorescence intensity of labeled antibodies against cells having various phenotypes.
The cells were cultured using IL-2 (5 U/ml) to stimulate the proliferation of Vα24^+ NKT cells, which were used as responder cells in the following autologous mixed leukocyte reaction. Autologous peripheral blood mononuclear cells were cultured for 4 days with the addition of GM-CSF +IL-4 and 100 ng/ml of KRN 7000, AGL-583 (β-galactosylceramide, β-GalCer) or 0.1% DMSO (vehicle) to prepare antigen-presenting cells. An autologous mixed leukocyte reaction was carried out using these antigen-presenting cells as stimulator cells. […]

[6] = system: MRL lpr/lpr mice; experiment: Survival period of MRL lpr/lpr mice; format: in vivo, mouse; conditions: 100 μg/kg i.p. twice a week from the age of 5 weeks, 10 animals per group; all vehicle mice died within 250 days, FIG. 4
Method: Ten animals per group of female MRL lpr/lpr mice were used for the following experiment. MLR mice purchased at the age of 4 weeks were randomly divided into 2 groups (10 animals per group). A vehicle (a physiological saline solution containing 0.025% Polysolvate 20) or KRN 7000 (100 μg/kg) was intraperitoneally administered twice a week (on Tuesday and Friday) to the animals starting from the age of 5 weeks. Survival of the animals was observed every day.

[7] = system: MRL lpr/lpr mice; experiment: Suppression of lymph node swelling in MRL lpr/lpr mice; format: in vivo, mouse; conditions: 100 μg/kg i.p. twice a week from the age of 11 weeks
Method: Ten animals per group of female MRL lpr/lpr mice (Sakamoto, A. Clin. Immunol., 28, 1558 (1966)), were used for the following experiment. During the observation of 21 MRL mice purchased at the age of 6 weeks, swelling of the axillary lymph nodes was recognized in one mouse at the age of 10 weeks. Accordingly, the other 20 mice were randomly divided into 2 groups. A vehicle (a physiological saline solution containing 0.025% Polysolvate 20) or KRN 7000 (100 μg/kg) was intraperitoneally administered twice a week (on Tuesday and Friday) to the abovementioned 2 groups of animals starting from the age of 11 weeks. Axillary and inguinal lymph nodes were examined twice a week to observe the progress of lymph node swelling with time. The lymph nodes were scored into 4 grades, i.e., −(0), +(1), ++(2) and +++(3) as a function of size. The total scores of both right and left sides of the axillary lymph node (A) or inguinal lymph node (B) were expressed as lymph node swelling indexes as shown in FIG. 3.

[8] = system: mouse lymphoma YAC-1 cells; experiment: Cytotoxic activity of spleen NKT cells against tumor cells (4 hour 51Cr-release) after i.v. administration to RAG-1KO/Vα14tg/Vβ8.2tg mice; format: in vivo; conditions: 100 μg/kg i.v., spleen taken 24 hours later, FIG. 1
Method: A vehicle (physiological saline containing 0.025% Polysolvate 20) or 100 μg/kg of KRN 7000 was intravenously administered to RAG-1KO/Vα14tg/Vβ8.2tg mice (bearing a large number of NKT cells but not B cells, T cells or NK cells in their lymphocyte fraction), and 24 hours later, the spleen was taken out from each mouse to prepare spleen cells by conventional methods. RAG-1KO/Vαl14tg/Vβ8.2tg mice were established by deletion of the RAG-1 gene and forcible expression of Vα14 and Vβ8.2 gene (Kawano T. et al., Science, 278, 1626-1629 (1997)). Thesemice are available from Masaru Taniguchi, School of Medicine, Chiba University. Cytotoxic activity of these spleen cells to mouse lymphoma YAC-1 cells was studied by the 4 hour-^51Cr-release method (Kobayashi, E. et al., Oncology Res., 7, 529 ([…])).

## CCCCCCCCCCCCCCCCCCCCCCCCCC(=O)N[C@@H](CO[C@H]1O[C@H](CO)[C@H](O)[C@H](O)[C@H]1O)[C@H](O)[C@H](O)CCCCCCCCCCCCCC [KRN 7000, (2S,3S,4R)-1-(α-D-galactopyranosyloxy)-2-hexacosanoylamino-3,4-octadecanediol]
[1]
  LD50: > 10 mg/kg
[2]
  toxicity symptoms: no particular symptom
[3]; 150 μg/kg i.v. on days 7, 8 and 9, uterus on day 12, of the total of 36 embryos
  embryos dead and resorbed: 12
[3]; 150 μg/kg i.v. on days 7, 8 and 9, PBS group 5.6%
  abortion rate: 33%
[4]
  mice that became diabetic at the age of 35 weeks: none
[5]
  effect of treated antigen presenting cells on Vα24+ NKT cell proliferation ([3H]thymidine uptake): marked stimulative effect
[6]
  mice surviving at 350 days after the start of the administration: three mice
[7]; FIG. 3A
  swelling in the axillary lymph nodes with aging: clearly suppressed
[7]; FIG. 3B
  swelling in the inguinal lymph nodes with aging: clearly suppressed
[8]
  cytotoxic activity against YAC-1 cells of spleen cells vs vehicle-administered mice: significantly higher
